This passage reports IC50 results from patent US11958861B2, “Spirocyclic lactams as JAK2 V617F inhibitors” (Incyte Corporation, priority 2021, dated 2024).

Structures can show the parent of a compound that is named as a salt. A value given as a limit tells only on which side of the number the result lay.

In assay [1] the target is T1, pseudo-kinase domain (JH2, amino-acids 536-812) of human V617F mutant JAK2 (Homo sapiens, UniProt O60674, F794H/V617F/W659A/W777A).
T1 construct: pseudo-kinase domain (JH2, amino-acids 536-812 with 3 surface mutations W659A, W777A, F794H); purchased BPS Bioscience 79498; host or cells: baculovirus expression system
Description: JAK2 LanthaScreen JH2-V617F Binding Assay. The following applies: 1 hour at 25° C. The method in brief:
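Binding was measured as TR-FRET displacement of 50 nM tracer from 0.26 nM biotinylated His-Avi protein, incubated one hour at 25° C; IC50 from a four-parameter fit.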
Background: TR-FRET usually uses a lanthanide donor and a delayed reading to cut background.

Assay [2] has as its target T2, pseudo-kinase domain (JH2, amino-acids 536-812) of human Wild Type JAK2 (Homo sapiens, UniProt O60674, F794H/W659A/W777A).
T2 construct: pseudo-kinase domain (JH2, amino-acids 536-812 with 3 surface mutations W659A, W777A, F794H); purchased BPS Bioscience 79463; host or cells: baculovirus expression system
Description: JAK2 LanthaScreen JH2-WT Binding Assay. Conditions: 1 hour at 25° C. In a few lines:
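TR-FRET tracer displacement: 0.145 nM biotinylated JH2 protein, 50 nM fluorescent tracer, 0.25 nM streptavidin-Tb, compound dilution series; 50 mM Tris pH 7.5, 10 mM MgCl2, 5 mM DTT; 1 h, 25° C. Non-specific binding with 2 mM ATP. IC50 by 4-parameter fit.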

Assay [3] deals with T3, catalytic domain (JH1, amino acids 826-1132) of human JAK2 (Homo sapiens, UniProt O60674).
T3 construct: catalytic domain (JH1, amino acids 826-1132) of human JAK2; purchased Carna Biosciences 08-445-20N; host or cells: baculovirus expression system
Nature of the assay: JAK2 LanthaScreen JH1 Binding Assay. Conditions: 2 hours at 25° C. The method in brief: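 Reaction held 1.5 nM biotinylated FLAG-JAK2 JH1, 50 nM tracer and 0.5 nM streptavidin-Tb in pH 7.5 Tris buffer; 2 mM ATP defined nonspecific binding.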

The target in assay [4] is T4, catalytic domain (JH1, amino acids 808-1132) of human JAK2 (Homo sapiens, UniProt O60674).
T4 construct: catalytic domain (JH1, amino acids 808-1132) of human JAK2; His (N); purchased BPS Bioscience 40450; host or cells: baculovirus expression system
Description: JAK2 HTRF Enzyme Activity Assay. The format is biochemical. The following applies: ATP 30 μM, read-out: ENZ 30UMATP. The method in brief: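 IC50 values come from a four-parameter fit of HTRF signal (Eu-PY20 antibody/streptavidin-APC, EDTA-quenched). Reaction: 0.015 nM N-His JAK2 catalytic domain (baculovirus), 500 nM biotin-peptide, 30 μM or 1 mM ATP, Tris pH 7.5 buffer, 60 min, 25° C.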

T3 sequence (O60674 826-1132): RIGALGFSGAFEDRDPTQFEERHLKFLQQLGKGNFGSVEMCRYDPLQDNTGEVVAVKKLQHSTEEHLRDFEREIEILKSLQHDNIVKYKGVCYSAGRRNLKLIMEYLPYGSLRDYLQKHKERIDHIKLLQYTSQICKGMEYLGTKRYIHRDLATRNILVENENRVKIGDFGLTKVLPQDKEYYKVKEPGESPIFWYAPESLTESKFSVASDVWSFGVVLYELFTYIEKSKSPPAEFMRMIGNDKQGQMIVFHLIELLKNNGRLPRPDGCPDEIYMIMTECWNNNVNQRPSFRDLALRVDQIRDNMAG
T1 sequence (O60674 536-812 V617F/W659A/W777A/F794H): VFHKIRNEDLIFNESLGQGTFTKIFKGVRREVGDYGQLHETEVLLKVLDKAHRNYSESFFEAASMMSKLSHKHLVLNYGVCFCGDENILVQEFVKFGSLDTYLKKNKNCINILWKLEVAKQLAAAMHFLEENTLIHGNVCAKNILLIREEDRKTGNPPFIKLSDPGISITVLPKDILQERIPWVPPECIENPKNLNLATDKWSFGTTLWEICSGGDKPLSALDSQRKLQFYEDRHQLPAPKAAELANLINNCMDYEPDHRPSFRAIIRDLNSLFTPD
T2 sequence (O60674 536-812 W659A/W777A/F794H): as the sequence (O60674 536-812 V617F/W659A/W777A/F794H) above, with F82V counted along it
T4 sequence (O60674 808-1132): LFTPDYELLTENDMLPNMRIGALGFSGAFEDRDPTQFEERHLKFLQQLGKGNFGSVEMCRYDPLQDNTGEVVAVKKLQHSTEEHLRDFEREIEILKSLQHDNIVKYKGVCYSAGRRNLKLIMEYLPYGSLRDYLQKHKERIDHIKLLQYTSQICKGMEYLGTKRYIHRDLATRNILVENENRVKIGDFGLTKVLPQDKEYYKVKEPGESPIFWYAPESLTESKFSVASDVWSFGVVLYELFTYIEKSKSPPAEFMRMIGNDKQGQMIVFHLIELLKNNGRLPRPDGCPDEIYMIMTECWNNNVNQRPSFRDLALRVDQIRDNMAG

`CN1C(=O)C2(CCC2)c2c1cnc1[nH]c(-c3ccc(CN4CCC(S(C)(=O)=O)CC4)cc3)c(-c3ccccc3)c21` [Example 10, 6′-Methyl-2′-(4-((4-(methylsulfonyl)piperidin-1-yl)methyl)phenyl)-1′-phenyl-3′,6′-dihydro-7′H-spiro[cyclobutane-1,8′-dipyrrolo[2,3-b:3′,2′-d]pyridin]-7′-one trifluoroacetate salt]: the IC50 in assay [1] was not above 100 nM; in assay [2], not above 100 nM; in assay [3], more than 2500 nM; in assay [4], more than 2500 nM.
Consider `CN1C(=O)C2(CCCCC2)c2c1cnc1[nH]c(-c3ccc(CN4CCC(S(C)(=O)=O)CC4)cc3)c(-c3ccccc3)c21` [Example 11, 6′-Methyl-2′-((4(4-(methylsulfonyl)piperidin-1-yl)methyl)phenyl)-1′-phenyl-3′,6′-dihydro-7′H-spiro[cyclohexane-1,8′-dipyrrolo[2,3-b:3′,2′-d]pyridin]-7′-one trifluoroacetate salt], for which the IC50 was 100 to 500 nM in assay [1], 100 to 500 nM in assay [2], more than 2500 nM in assay [3] and more than 2500 nM in assay [4].
Consider `CC(=O)N1C2CCC1CC1(C2)C(=O)N(C)c2cnc3[nH]c(-c4ccc(CN5CCC(S(C)(=O)=O)CC5)cc4)c(-c4ccccc4)c3c21` (stereo not drawn) [Example 13, 8-Acetyl-6′-methyl-2′-((4(4-(methylsulfonyl)piperidin-1-yl)methyl)phenyl)-1′-phenyl-3′,6′-dihydro-7′H-8-azaspiro[bicyclo[3.2.1]octane-3,8′-dipyrrolo[2,3-b:3′,2′-d]pyridin]-7′-one trifluoroacetate salt], for which the IC50 in assay [1] is 100 to 500 nM; in assay [2], not above 100 nM; in assay [3], 1250 to 2500 nM; in assay [4] it was 1250 to 2500 nM.
As for `CN1C(=O)C2(CCN(c3ccncn3)CC2)c2c1cnc1[nH]c(-c3ccc(CN4CCC(S(C)(=O)=O)CC4)cc3)c(-c3ccccc3)c21` [Example 15, 6-Methyl-2-(4-((4-(methylsulfonyl)piperidin-1-yl)methyl)phenyl)-1-phenyl-1′-(pyrimidin-4-yl)-3,6-dihydro-7H-spiro[dipyrrolo[2,3-b:3′,2′-d]pyridine-8,4′-piperidin]-7-one, trifluoroacetate salt], the IC50 is not above 100 nM in assay [1], not above 100 nM in assay [2], more than 2500 nM in assay [3] and more than 2500 nM in assay [4].
As for `CN1C(=O)C2(CC3CCC(C2)N3c2ccncn2)c2c1cnc1[nH]c(-c3ccc(CN4CCC(S(C)(=O)=O)CC4)cc3)c(-c3ccccc3)c21` [Example 16, (1R,3r,5S)-6′-Methyl-2′-((4(4-(methylsulfonyl)piperidin-1-yl)methyl)phenyl)-1′-phenyl-8-(pyrimidin-4-yl)-3′,6′-dihydro-7′H-8-azaspiro[bicyclo[3.2.1]octane-3,8′-dipyrrolo[2,3-b:3′,2′-d]pyridin]-7′-one, trifluoroacetate salt], the IC50 in assay [1] was not above 100 nM; in assay [2], not above 100 nM; in assay [3], more than 2500 nM; in assay [4], more than 2500 nM.
Take `Cc1ncc(-c2c(-c3cnn(C)c3)[nH]c3ncc4c(c23)C2(CCN(c3ccncn3)CC2)C(=O)N4C)s1` [Example 17, 6-Methyl-2-(1-methyl-1H-pyrazol-4-yl)-1-(2-methylthiazol-5-yl)-1′-(pyrimidin-4-yl)-3,6-dihydro-7H-spiro[dipyrrolo[2,3-b:3′,2′-d]pyridine-8,4′-piperidin]-7-one, trifluoroacetate salt]: the IC50 in assay [1] is 100 to 500 nM; in assay [2] it was 100 to 500 nM; in assay [3], more than 2500 nM; in assay [4], more than 2500 nM.
Turning to `C=Cc1c(-c2cnn(C)c2)[nH]c2ncc3c(c12)C1(CCN(c2ccncn2)CC1)C(=O)N3C` [Example 18, 6-Methyl-2-(1-methyl-1H-pyrazol-4-yl)-1′-(pyrimidin-4-yl)-1-vinyl-3,6-dihydro-7H-spiro[dipyrrolo[2,3-b:3′,2′-d]pyridine-8,4′-piperidin]-7-one, trifluoroacetate salt], the IC50 is 1250 to 2500 nM in assay [1], 500 to 1250 nM in assay [2], more than 2500 nM in assay [3] and more than 2500 nM in assay [4].
On to `CCc1c(-c2cnn(C)c2)[nH]c2ncc3c(c12)C1(CCN(c2ccncn2)CC1)C(=O)N3C` [Example 19, 1-Ethyl-6-methyl-2-(1-methyl-1H-pyrazol-4-yl)-1′-(pyrimidin-4-yl)-3,6-dihydro-7H-spiro[dipyrrolo[2,3-b:3′,2′-d]pyridine-8,4′-piperidin]-7-one, trifluoroacetate salt], for which the IC50 in assay [1] was 100 to 500 nM; in assay [2] it was 100 to 500 nM; in assay [3] it was 1250 to 2500 nM; in assay [4], 1250 to 2500 nM.
As to `CN1C(=O)C2(CCN(c3ccncn3)CC2)c2c1cnc1[nH]c(-c3cnn(C)c3)c(C3=CCOCC3)c21` [Example 20, 1-(3,6-Dihydro-2H-pyran-4-yl)-6-methyl-2-(1-methyl-1H-pyrazol-4-yl)-(1-(pyrimidin-4-yl)-3,6-dihydro-7H-spiro[dipyrrolo[2,3-b:3′,2′-d]pyridine-8,4′-piperidin]-7-one, trifluoroacetate salt], the IC50 is 100 to 500 nM in assay [1], 100 to 500 nM in assay [2], more than 2500 nM in assay [3] and more than 2500 nM in assay [4].
Consider `COc1cccc(NC(=O)N2CCC3(CC2)C(=O)N(C)c2cnc4[nH]c(-c5ccc(CN6CCC(S(C)(=O)=O)CC6)cc5)c(-c5ccccc5)c4c23)c1` [Example 21, N-(3-Methoxyphenyl)-6-methyl-2-(4-((4-(methylsulfonyl)piperidin-1-yl)methyl)phenyl)-7-oxo-1-phenyl-6,7-dihydro-3H-spiro[dipyrrolo[2,3-b:3′,2′-d]pyridine-8,4′-piperidine]-1′-carboxamide, trifluoroacetate salt], for which the IC50 in assay [1] was not above 100 nM; in assay [2] it was not above 100 nM; in assay [3] it was more than 2500 nM; in assay [4], more than 2500 nM.
`CN1C(=O)C2(CCCC2)c2c1cnc1[nH]c(-c3cnn(C)c3)c(-c3ccc(CN4CCN(S(C)(=O)=O)CC4)cc3)c21` [Example 22, 6′-Methyl-2′-(1-methyl-1H-pyrazol-4-yl)-1′-(4-((4-(methylsulfonyl)piperazin-1-yl)methyl)phenyl)-3′,6′-dihydro-7′H-spiro[cyclopentane-1,8′-dipyrrolo[2,3-b:3′,2′-d]pyridin]-7′-one, trifluoroacetate salt]: the IC50 in assay [1] is 100 to 500 nM; in assay [2] it was not above 100 nM; in assay [3], more than 2500 nM; in assay [4], more than 2500 nM.
With `CCS(=O)(=O)N1CC(CC#N)(N2CCC3(CC2)C(=O)N(C)c2cnc4[nH]c(-c5cnn(C)c5)c(-c5ccccc5)c4c23)C1` [Example 23, 2-(1-(Ethylsulfonyl)-3-(6-methyl-2-(1-methyl-1H-pyrazol-4-yl)-7-oxo-1-phenyl-6,7-dihydro-3H-spiro[dipyrrolo[2,3-b:3′,2′-d]pyridine-8,4′-piperidin]-1′-yl)azetidin-3-yl)acetonitrile, trifluoroacetate salt], the IC50 in assay [1] was not above 100 nM; in assay [2], not above 100 nM; in assay [3], 500 to 1250 nM; in assay [4] it was 100 to 500 nM.
